# Laboratory results: patent US10124004B2, “Pyrido[3,4-d]pyrimidine derivative and pharmaceutically acceptable salt thereof” (Teijin Pharma Limited, priority 2015, dated 2018)
# Where two headings read alike, the source gives them in different places.
# What was measured:
# CDK4/cyclin D3 = target: T1, CDK4/cyclin D3 (Homo sapiens, UniProt P11802); assay: Human CDK4/cyclin D3 inhibitory activity (QS S Assist CDK4/Cyclin D3_FP Kit, IMAP fluorescence polarization); format: biochemical
# T1 construct: purchased Carna Biosciences, Inc. QS S Assist CDK4/Cyclin D3_FP Kit
# Summary of the method: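 IMAP fluorescence polarization kit: CDK4/cyclin D3 at 12.5-25 ng/well with kit ATP/substrate/metal mix in 20 mM HEPES pH 7.4, 0.01% Tween20, 2 mM DTT, 45 min at room temperature. FP read at 485/535 nm after 30 min binding; IC50 from dose-response fit of percent inhibition versus enzyme and no-enzyme controls.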
# CDK2/cyclin A2 = target: T2, CDK2/cyclin A2 (Homo sapiens, UniProt P24941); assay: Human CDK2/cyclin A2 inhibitory activity (QS S Assist CDK2/Cyclin A2_FP Kit, IMAP fluorescence polarization); format: biochemical
# T2 construct: purchased Carna Biosciences, Inc. QS S Assist CDK2/Cyclin A2_FP Kit
# Summary of the method: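 Kinase activity read as fluorescence polarization (485/535 nm) after phosphorylated fluorescent substrate binds IMAP reagent (30 min, RT, dark). Enzyme (2.5 ng/well) reacted 60 min at RT with ATP/substrate/metal in HEPES pH 7.4 buffer with Tween 20 and DTT; no-enzyme wells define 0% activity; IC50 by curve fit.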
# [1] = 50% inhibitory concentration against CDK4/cyclin D3, given as class symbol
# [2] = 50% inhibitory concentration against CDK2/cyclin A2, given as class symbol
# [3] = Human CDK4/cyclin D3 inhibitory activity, read-out: CDK4 Activity symbol
# [4] = Human CDK2/cyclin A2 inhibitory activity, read-out: CDK2 Activity symbol
# T1 sequence (P11802 whole entry): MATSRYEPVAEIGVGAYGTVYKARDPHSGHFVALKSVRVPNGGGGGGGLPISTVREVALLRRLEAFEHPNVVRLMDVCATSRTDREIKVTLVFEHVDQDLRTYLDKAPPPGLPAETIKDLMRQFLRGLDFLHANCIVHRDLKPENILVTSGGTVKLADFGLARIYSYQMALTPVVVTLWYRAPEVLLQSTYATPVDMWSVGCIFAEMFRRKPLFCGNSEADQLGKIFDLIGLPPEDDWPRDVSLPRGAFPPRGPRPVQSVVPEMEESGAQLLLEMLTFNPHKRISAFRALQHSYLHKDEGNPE
# T1 sequence (P30281 whole entry partner): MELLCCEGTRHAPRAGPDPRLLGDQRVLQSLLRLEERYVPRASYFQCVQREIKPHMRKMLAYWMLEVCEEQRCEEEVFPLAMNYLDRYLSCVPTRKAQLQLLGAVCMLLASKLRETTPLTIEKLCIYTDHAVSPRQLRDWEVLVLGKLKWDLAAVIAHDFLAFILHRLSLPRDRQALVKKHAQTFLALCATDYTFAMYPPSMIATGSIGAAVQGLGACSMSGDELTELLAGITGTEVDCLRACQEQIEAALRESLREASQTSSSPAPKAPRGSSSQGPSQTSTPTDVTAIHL
Structure (SMILES),IC50 (CDK4/cyclin D3; [1]) [nM],IC50 (CDK2/cyclin A2; [2]) [nM],IC50 (CDK4/cyclin D3; [3]) [nM],IC50 (CDK2/cyclin A2; [4]) [nM]
CNC1CCCC1Oc1ccc(Nc2ncc3cc(C(C)O)nc(NC(C)C)c3n2)nc1 (centres unmarked) [Compound 739],< 10,≥ 100,,
CC(C)Nc1nc(C(F)F)cc2cnc(Nc3ncc(N4CCNCC4)cn3)nc12 [Compound 163],,,< 10,≥ 100
CC(=O)N1CCN(Cc2ccc(Nc3ncc4cc(C(F)F)nc(NC(C)C)c4n3)nc2)CC1 [Compound 117],,,< 10,≥ 100
CCCNc1nc([C@@H](C)O)cc2cnc(Nc3ccc(N4CCNCC4)cn3)nc12 [Compound 921],< 10,≥ 100,,
CC(=O)c1cc2cnc(Nc3ccc(N4CCNCC4)cn3)nc2c(NC(C)C)n1 [Compound 35],,,< 10,≥ 100
CC(C)Nc1nc(C(F)F)cc2cnc(Nc3ccc(CN(CC4CCOCC4)S(C)(=O)=O)cn3)nc12 [Compound 143],,,10 to 100,≥ 100
CC(C)Nc1nc(C(F)F)cc2cnc(Nc3ccc(C4CCOCC4=O)cn3)nc12 (centres unmarked) [Compound 161],,,< 10,10 to 100
CC(C)Nc1nc([C@@H](C)O)cc2cnc(Nc3ccc(N4CC(C)NCC4=O)cn3)nc12 (some centres unmarked) [Compound 1032],< 10,≥ 100,,
C[C@@H](O)c1cc2cnc(Nc3ccc(N4CCNCC4=O)cn3)nc2c(NC2CCC2)n1 [Compound 1045],< 10,≥ 100,,
CO[C@H](C)c1cc2cnc(Nc3ccc(N4CCNCC4)nn3)nc2c(NC(C)(C)C)n1 [Compound 709],< 10,≥ 100,,
"CC(C)Nc1nc([C@@H](C)O)cc2cnc(Nc3ccc(N4CCNCC4)nn3)nc12 [Compound 261, (R)-1-(8-(isopropylamino)-2-((6-(piperazin-1-yl)pyridazin-3-yl)amino)pyrido[3,4-d]pyrimidin-6-yl)ethanol]",,,< 10,≥ 100
CO[C@H](C)c1cc2cnc(Nc3ccc(N4CCNCC4)nn3)nc2c(NC2CCOCC2)n1 [Compound 285],,,< 10,≥ 100
CC(C)Nc1nc([C@@H](C)O)cc2cnc(Nc3ccc(N4CCN(C(=O)C(C)C)CC4)nn3)nc12 [Compound 746],< 10,≥ 100,,
CC(CN(C)C)Oc1ccc(Nc2ncc3cc([C@@H](C)O)nc(N[C@H]4CCCOC4)c3n2)nc1 (some centres unmarked) [Compound 781],< 10,≥ 100,,
CC(O)CN1CCN(c2ccc(Nc3ncc4cc([C@@H](C)O)nc(NC(C)C)c4n3)nn2)CC1 (some centres unmarked) [Compound 637],< 10,≥ 100,,
CC(C)Nc1nc([C@@H](C)O)cc2cnc(Nc3ccc(N4CCN(C(C)CO)CC4)nn3)nc12 (some centres unmarked) [Compound 588],,,< 10,≥ 100
CO[C@H](C)c1cc2cnc(Nc3ccc(CN4CCN(C5COC5)CC4)cn3)nc2c(NC(C)C)n1 [Compound 681],10 to 100,≥ 100,,
C[C@@H](O)c1cc2cnc(Nc3ccc4c(n3)CCN(CCN(C)C)C4)nc2c(N[C@H]2CCCOC2)n1 [Compound 1140],< 10,≥ 100,,
CC(C)Nc1nc([C@@H](C)O)cc2cnc(Nc3ccc(CN4CCC(CO)CC4)cn3)nc12 [Compound 1016],< 10,≥ 100,,
CC(C)Nc1nc([C@@H](C)O)cc2cnc(Nc3ccc(N4CCN(CC(=O)N5CCCC5)CC4)nn3)nc12 [Compound 966],< 10,≥ 100,,
CC(C)Nc1nc(C(F)F)cc2cnc(Nc3ccc(CNC(N)=O)cn3)nc12 [Compound 138],,,< 10,10 to 100
CC(C)Nc1nc([C@@H](C)O)cc2cnc(Nc3ccc(CC(=O)N4CCN(C(C)C)CC4)cn3)nc12 [Compound 615],,,< 10,≥ 100
CC(C)Nc1nc([C@@H](C)O)cc2cnc(Nc3ccc(N4CCC(C(=O)O)CC4)cn3)nc12 [Compound 836],10 to 100,≥ 100,,
CC(C)Nc1nc(C(F)F)cc2cnc(Nc3ccc(N4C[C@@H](O)CC4=O)cn3)nc12 [Compound 184],,,< 10,10 to 100
CCCNc1nc([C@@H](C)O)cc2cnc(Nc3ccc(N4CCC(O)CC4)nn3)nc12 [Compound 1000],10 to 100,≥ 100,,

Structure (SMILES),IC50 (CDK4/cyclin D3; [1]) [nM],IC50 (CDK2/cyclin A2; [2]) [nM],IC50 (CDK4/cyclin D3; [3]) [nM],IC50 (CDK2/cyclin A2; [4]) [nM]
CNCCOc1ccc(Nc2ncc3cc([C@@H](C)O)nc(N[C@H]4CCCOC4)c3n2)nc1 [Compound 635],< 10,≥ 100,,
CC(C)N(C)c1nc(C(F)F)cc2cnc(Nc3ccc(N4CCNCC4)cn3)nc12 [Compound 14],,,< 10,≥ 100
CC(C)Nc1nc(C(F)F)cc2cnc(Nc3ccc(NC(=O)CO)cn3)nc12 [Compound 95],,,≥ 100,10 to 100
OCCN1CCc2nc(Nc3ncc4cc(C5CCOC5)nc(N[C@H]5CC[C@H](O)CC5)c4n3)ccc2C1 (some centres unmarked) [Compound 1154],< 10,≥ 100,,
C[C@@H](O)c1cc2cnc(Nc3ccc(O[C@@H]4CCNC4)cn3)nc2c(N[C@H]2CCCOC2)n1 [Compound 805],< 10,≥ 100,,
CC(C)Nc1nc([C@@H](C)O)cc2cnc(Nc3ccc(C(=O)N4CC[C@H](N(C)C)C4)cn3)nc12 [Compound 1162],< 10,10 to 100,,
CO[C@H](C)c1cc2cnc(Nc3ccc(N4CCNCC4)nn3)nc2c(N[C@@H]2CCOC2)n1 [Compound 307],,,< 10,≥ 100
C[C@@H](O)c1cc2cnc(Nc3ccc(N4CCNCC4=O)cn3)nc2c(NC2CC(F)C2)n1 (some centres unmarked) [Compound 1210],< 10,≥ 100,,
CO[C@H](C)c1cc2cnc(Nc3ccc4c(n3)CCN(CCN(C)C)C4)nc2c(N[C@H]2CC[C@H](O)CC2)n1 [Compound 1180],< 10,≥ 100,,
CC(=O)N1CCN(c2ccc(Nc3ncc4cc([C@@H](C)O)nc(NC(C)C)c4n3)nn2)CC1 [Compound 745],< 10,≥ 100,,
CC(C)Nc1nc([C@@H](C)O)cc2cnc(Nc3ccc(N4CCN(CC(=O)N(C)C)CC4)nn3)nc12 [Compound 991],< 10,≥ 100,,
O=C1CNCCN1c1ccc(Nc2ncc3cc(C(F)F)nc(NCC4CCOCC4)c3n2)nc1 [Compound 823],10 to 100,≥ 100,,
CC(=O)N(Cc1ccc(Nc2ncc3cc(C(F)F)nc(NC(C)C)c3n2)nc1)C[C@H]1CCCO1 [Compound 145],,,< 10,10 to 100
N#CCN1CCN(Cc2ccc(Nc3ncc4cc(C5CCOC5)nc(N[C@H]5CCCOC5)c4n3)nc2)CC1 (some centres unmarked) [Compound 1013],< 10,≥ 100,,
CC(C)Nc1nc([C@@H](C)O)cc2cnc(Nc3ccc(N4CCN(C(C)C#N)CC4)nn3)nc12 (some centres unmarked) [Compound 902],< 10,≥ 100,,
COCC(C)(C)Nc1nc([C@@H](C)O)cc2cnc(Nc3cnc(N4CCNCC4)cn3)nc12 [Compound 373],,,< 10,≥ 100
CO[C@H](C)c1cc2cnc(Nc3ccc(-c4cccnc4)cn3)nc2c(NC(C)C)n1 [Compound 331],,,≥ 100,≥ 100
CO[C@H](C)c1cc2cnc(Nc3ccc(N4CCC(C)(N)CC4)nn3)nc2c(NC(C)C)n1 [Compound 560],,,< 10,≥ 100
COC(=O)CNCCNc1ccc(Nc2ncc3cc([C@@H](C)O)nc(NC(C)C)c3n2)nc1 [Compound 717],10 to 100,≥ 100,,
CNC(=O)CN1CCN(Cc2ccc(Nc3ncc4cc([C@@H](C)O)nc(NC(C)C)c4n3)nc2)CC1 [Compound 1017],< 10,≥ 100,,
C[C@@H](O)c1cc2cnc(Nc3ccc(N4CCN(C)CC4)nn3)nc2c(NC(C)(C)CO)n1 [Compound 1101],< 10,≥ 100,,
CC(C)CNc1nc(C(F)F)cc2cnc(Nc3ccc(CN4CCC(C(=O)O)CC4)cn3)nc12 [Compound 1098],10 to 100,≥ 100,,
CNC1CCN(c2ccc(Nc3ncc4cc(C(C)O)nc(NC(C)C)c4n3)nn2)CC1F (centres unmarked) [Compound 610],,,< 10,≥ 100
CC(C)Nc1nc([C@@H](C)O)cc2cnc(Nc3ccc(N4CCN(C(=O)CO)CC4)cn3)nc12 [Compound 1090],< 10,≥ 100,,
